Patent US9873725B2, “Mimetic peptides which modulate L-type calcium channels” (CONSIGLIO NAZIONALE DELLE RICERCHE, priority 2014, dated 2018)
Where no end group is shown, it is not given here.

Legend:
LTCCs = assay: Confocal analysis of co-localization with LTCCs in isolated adult cardiomyocytes; type: cell-based
Excerpt: (§1) a) Western blotting analysis of Cavα1.2 and GAPDH protein levels of total protein lysates; b) Intracellular Ca^2+fluxes; (c) Molecular modeling and docking of a peptide (SEQ ID NO:2, dark grey) to TID region (SEQ ID NO:10, light grey) of Cavβ2.; (d) Western blotting analysis of Cavα1.2 and GAPDH protein levels of total protein lysates; (e) Confocal analyses of adult cardiomyocytes treated with TAT-MP- and TAT-scramble-and stained with di 8-ANEPPS dye. MP=SEQ ID NO:3, scramble=SEQ ID NO:11. (f) Western blotting analysis of Cavα1.2 and GAPDH protein levels of total protein lysates from HEK293 cells treated with increasing doses of MP; (g) Ca^2+ current measurements in tSA-201 cells previously transfected. For Western blotting analyses, HEK293 or tSA-201 cells transfected or treated as indicated. Protein levels were normalized to GAPDH. (n=4). Data are shown as the means±SEM; *, P<0.05, **, P<0.005; ***, P<0.001.
(§2) To facilitate the intracellular uptake, a cell-penetrating peptide (CPP) was conjugated to the MP (SEQ ID NO: 3). […] Thus, the trans-activating transcriptional activator (TAT) from Human Immunodeficiency Virus 1 (HIV-1) was used. […] TAT-MP=SEQ ID NO: 3; TAT-scramble=scramble=SEQ ID NO:11.

Cavα1.2 [1] = assay: Western blot of Cavα1.2 protein degradation in peptide-treated cells, serum removal; type: cell-based
Excerpt: as §1, §2

LTCC = target: T1, LTCC (Homo sapiens, UniProt Q08289); assay: Ca2+ current measurements in tSA-201 cells, serum removal; type: cell-based
T1 construct: expressed in transfected cells; host or cells: tSA-201
T1 sequence (Q08289 whole entry): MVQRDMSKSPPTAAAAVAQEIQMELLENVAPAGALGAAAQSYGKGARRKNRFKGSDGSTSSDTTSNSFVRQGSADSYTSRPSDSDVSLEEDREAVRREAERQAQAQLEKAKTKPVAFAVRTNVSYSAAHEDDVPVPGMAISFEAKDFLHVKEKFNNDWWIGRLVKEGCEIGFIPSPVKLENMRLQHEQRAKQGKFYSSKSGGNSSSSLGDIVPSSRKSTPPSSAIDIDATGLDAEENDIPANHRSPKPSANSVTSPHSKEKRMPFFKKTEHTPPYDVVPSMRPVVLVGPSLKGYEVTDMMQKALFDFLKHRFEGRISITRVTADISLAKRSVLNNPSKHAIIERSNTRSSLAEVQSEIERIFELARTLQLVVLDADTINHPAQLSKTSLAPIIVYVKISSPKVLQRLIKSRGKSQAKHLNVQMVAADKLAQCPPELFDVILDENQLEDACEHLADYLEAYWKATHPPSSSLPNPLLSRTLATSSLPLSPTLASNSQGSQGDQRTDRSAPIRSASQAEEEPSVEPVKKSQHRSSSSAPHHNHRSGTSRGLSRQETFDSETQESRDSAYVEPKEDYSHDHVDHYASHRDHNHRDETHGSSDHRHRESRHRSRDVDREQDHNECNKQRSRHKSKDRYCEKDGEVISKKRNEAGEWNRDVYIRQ
T1 sequence (Q13936 whole entry partner): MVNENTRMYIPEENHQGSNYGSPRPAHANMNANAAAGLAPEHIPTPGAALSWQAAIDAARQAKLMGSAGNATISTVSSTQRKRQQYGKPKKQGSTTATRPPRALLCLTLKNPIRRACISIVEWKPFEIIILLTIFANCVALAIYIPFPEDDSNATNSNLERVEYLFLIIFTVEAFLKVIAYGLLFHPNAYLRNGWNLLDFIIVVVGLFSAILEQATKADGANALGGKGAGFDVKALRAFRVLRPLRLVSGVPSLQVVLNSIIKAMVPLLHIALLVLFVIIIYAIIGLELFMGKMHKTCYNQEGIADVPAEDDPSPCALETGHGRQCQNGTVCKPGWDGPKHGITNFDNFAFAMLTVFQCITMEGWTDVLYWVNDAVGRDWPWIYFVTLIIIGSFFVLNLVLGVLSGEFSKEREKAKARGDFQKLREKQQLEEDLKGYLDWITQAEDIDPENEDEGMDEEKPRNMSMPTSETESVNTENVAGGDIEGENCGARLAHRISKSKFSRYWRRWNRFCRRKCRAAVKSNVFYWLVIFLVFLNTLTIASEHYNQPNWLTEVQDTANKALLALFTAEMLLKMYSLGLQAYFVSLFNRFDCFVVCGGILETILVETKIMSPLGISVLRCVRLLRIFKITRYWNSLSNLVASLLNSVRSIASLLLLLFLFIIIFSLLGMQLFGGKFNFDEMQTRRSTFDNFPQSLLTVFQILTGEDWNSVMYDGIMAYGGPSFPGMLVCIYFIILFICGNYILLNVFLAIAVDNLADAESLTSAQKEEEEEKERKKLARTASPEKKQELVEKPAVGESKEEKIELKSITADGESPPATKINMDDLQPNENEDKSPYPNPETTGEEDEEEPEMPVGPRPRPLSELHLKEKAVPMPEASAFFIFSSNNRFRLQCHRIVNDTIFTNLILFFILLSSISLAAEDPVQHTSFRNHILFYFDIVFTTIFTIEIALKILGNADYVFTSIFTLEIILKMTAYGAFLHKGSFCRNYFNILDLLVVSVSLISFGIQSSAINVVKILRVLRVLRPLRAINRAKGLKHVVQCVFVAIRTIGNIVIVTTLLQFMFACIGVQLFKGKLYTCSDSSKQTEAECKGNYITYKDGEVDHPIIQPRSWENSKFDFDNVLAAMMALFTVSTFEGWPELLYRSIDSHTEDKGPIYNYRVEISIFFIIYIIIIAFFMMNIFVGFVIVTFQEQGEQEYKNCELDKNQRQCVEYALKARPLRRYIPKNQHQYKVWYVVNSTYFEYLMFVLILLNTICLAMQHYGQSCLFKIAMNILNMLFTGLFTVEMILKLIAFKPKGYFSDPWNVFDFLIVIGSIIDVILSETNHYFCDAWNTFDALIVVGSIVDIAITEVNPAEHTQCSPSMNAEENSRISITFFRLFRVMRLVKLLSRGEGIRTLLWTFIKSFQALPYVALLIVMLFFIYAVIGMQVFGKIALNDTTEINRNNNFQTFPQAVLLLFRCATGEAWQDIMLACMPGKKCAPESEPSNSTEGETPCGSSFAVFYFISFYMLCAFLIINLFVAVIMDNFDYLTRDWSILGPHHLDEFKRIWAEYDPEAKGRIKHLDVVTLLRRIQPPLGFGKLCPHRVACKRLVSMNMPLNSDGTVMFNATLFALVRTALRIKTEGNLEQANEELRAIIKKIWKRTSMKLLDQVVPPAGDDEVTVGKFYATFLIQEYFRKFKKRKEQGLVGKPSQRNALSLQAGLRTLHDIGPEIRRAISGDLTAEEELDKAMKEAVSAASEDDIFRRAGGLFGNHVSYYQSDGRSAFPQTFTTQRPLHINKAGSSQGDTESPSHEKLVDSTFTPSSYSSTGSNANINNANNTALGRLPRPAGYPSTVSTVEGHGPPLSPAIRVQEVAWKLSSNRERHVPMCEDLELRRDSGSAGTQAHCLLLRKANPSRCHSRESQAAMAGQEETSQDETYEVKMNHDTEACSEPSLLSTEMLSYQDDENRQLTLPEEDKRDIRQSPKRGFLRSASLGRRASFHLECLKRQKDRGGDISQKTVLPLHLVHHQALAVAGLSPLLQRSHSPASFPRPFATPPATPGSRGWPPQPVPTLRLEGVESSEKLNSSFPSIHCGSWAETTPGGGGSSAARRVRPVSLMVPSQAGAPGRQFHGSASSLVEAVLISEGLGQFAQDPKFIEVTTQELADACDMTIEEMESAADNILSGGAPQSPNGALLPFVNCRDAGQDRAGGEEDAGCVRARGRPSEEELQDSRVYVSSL
Excerpt: as §1, §2

pdk1 knockout mice = assay: Genetic mouse model of heart failure (inducible cardiac specific PDK1 knockout); type: in vivo; settings: for cardiac (left ventricular) function, echocardiography: PDK1 knockout mice after tamoxifen, cell penetrating peptides
Protocol: (a, top) Design of study. Echo, echocardiography. (a, bottom) Fractional shortening (%) as determined by echocardiography in pdk1 knockout mice treated with mimetic peptide (TAT-MP) or scramble (TAT-scramble). (b) Western blotting analysis of Cavα1.2 and GAPDH protein levels of total protein lysates from left ventricular homogenates. Protein levels were normalized to GAPDH. (n=4) MP=SEQ ID NO:3, scramble=SEQ ID NO:11. Tamoxifen (TAM) and peptide was injected daily as indicated. Protein levels were normalized to GAPDH.
To explore the in vivo therapeutic potential, MP was used in an inducible and cardiac specific knockout of the phosphoinositide-dependent kinase 1 (PDK1), the upstream activator of all three Akt isoforms. […] We then treated the mice with either cell penetrating MP or scramble peptides and followed the phenotype for the following days. […] MP=SEQ ID NO: 3; TAT-scramble=scramble=SEQ ID NO:11.

Cavα1.2 [2] = assay: Western blot of Cavα1.2 protein levels in iPSC-CMs subjected to an Akt inhibitor; type: cell-based, human; settings: iPSC-CMs co-treated with Akt inhibitor
Excerpt: (a) Western blotting analysis of Cavα1.2 and GAPDH protein levels of total protein lysates from cardiomyocytes (CMs) differentiated from induced pluripotent stem cells (iPSCs) and previously derived from skin fibroblasts of healthy individuals. (n=4) Cells were untreated or treated with an Akt-inhibitor. MP=SEQ ID NO:3, scramble=SEQ ID NO:11.
(§3) Based on this, we next performed functional analyses and examined the iPSC-CM beating clusters (BCs) for Ca^2+ handling properties. […] On the other hand, no effects were observed when BCs were co-treated with scramble.

iPSC-CM beating clusters = assay: Ca2+ handling in iPSC-CM beating clusters treated with Akt-inhibitor; type: cell-based, human; settings: iPSC-CM beating clusters co-treated with Akt-inhibitor
Excerpt: as §3

Cavα1.2 [3] = assay: Western blot of Cavα1.2 protein levels in HEK293 cells transfected with peptides, serum removal; type: cell-based; settings: specific mutations within either the MP or Cavα1.2
Excerpt: as §1
Based on the evidence shown in example 1, we next investigated whether mimetic peptides (MPs) might recapitulate the mechanism by which LTCCs are protected from protein degradation by binding to the TID domain. […]

DQPPSRRDERA [scramble control peptide]
co-localization with LTCCs (LTCCs): none of these effects were observed | protection of Cavα1.2 from protein degradation (Cavα1.2 [1]): none of these effects were observed | Ca2+ current (LTCC): none of these effects were observed | cardiac (left ventricular) function, echocardiography (pdk1 knockout mice): progressive impairment of left ventricular function | downregulation of Cavα1.2 protein levels (Cavα1.2 [2]): no rescuing effects | slowing (delay) of Ca2+ transient development (iPSC-CM beating clusters): no effects

DQRPDREAPRS [MP]
protective effect on Cavα1.2 when mutations abolish the predicted MP-TID interaction (Cavα1.2 [3]): completely lost | cardiac (left ventricular) function, echocardiography (pdk1 knockout mice): significant attenuation of the impairment of cardiac function | LTCC protein levels (pdk1 knockout mice; left ventricular homogenates of PDK1 knockout mice): restoration of LTCC protein levels | downregulation of Cavα1.2 protein levels (Cavα1.2 [2]): prevented | slowing (delay) of Ca2+ transient development (iPSC-CM beating clusters): sufficient for reducing this delay
